From ChEMBL document CHEMBL1201862, “PubChem BioAssay data set” (2004)
Counter-ions that a name gives are not always drawn. Calls of active or inactive are those of the source.

How the values were obtained:
[1] = HEp-2 cell cytotoxicity, dose response, cytotoxicity control for RSV inhibitor project, HTS (AID 2410); type: functional; details: human respiratory syncytial virus
[2] = target: T1, Protein skinhead-1 (Caenorhabditis elegans, UniProt P34707); type: functional
T1 sequence (P34707 whole entry): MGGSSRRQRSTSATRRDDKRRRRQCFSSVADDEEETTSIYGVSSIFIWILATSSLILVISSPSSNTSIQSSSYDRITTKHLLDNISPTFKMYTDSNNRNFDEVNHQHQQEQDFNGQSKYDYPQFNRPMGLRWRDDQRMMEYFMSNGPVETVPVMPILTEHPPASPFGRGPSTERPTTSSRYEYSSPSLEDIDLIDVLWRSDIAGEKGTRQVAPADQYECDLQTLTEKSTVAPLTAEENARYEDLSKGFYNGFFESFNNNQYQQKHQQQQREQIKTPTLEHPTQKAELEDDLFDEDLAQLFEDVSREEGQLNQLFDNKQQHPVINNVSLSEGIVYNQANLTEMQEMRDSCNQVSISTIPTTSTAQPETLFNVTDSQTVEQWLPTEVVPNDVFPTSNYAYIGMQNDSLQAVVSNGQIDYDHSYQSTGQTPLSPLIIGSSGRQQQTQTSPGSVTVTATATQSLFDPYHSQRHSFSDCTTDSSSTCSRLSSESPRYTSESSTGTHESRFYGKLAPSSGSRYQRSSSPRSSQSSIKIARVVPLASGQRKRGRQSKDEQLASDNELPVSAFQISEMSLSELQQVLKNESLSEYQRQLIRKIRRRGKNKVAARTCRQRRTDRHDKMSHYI

[3] = cells; type: functional
[4] = target: FAD-linked sulfhydryl oxidase ALR (Homo sapiens, UniProt P55789); assay: inhibitors of human ALR sulfhydryl oxidase, dose response, biochemical, H2O2 detection, luminescence, cherry-pick (AID 493248)
[5] = target: T2, Heat shock factor protein 1 (Mus musculus, UniProt P38532); assay: HSF1 potentiators in luciferase reporter cells, confirmation, cell-based, NIH3T3, luminescence, dose retest (AID 435004); type: functional;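 further: stress induced by proteasome inhibitor MG132 added 30 min after compound; luciferase reporter driven by HSF1 response element in NIH3T3 cells; actives raise luminescence as potentiators of the MG132 stress response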
T2 sequence (P38532 whole entry): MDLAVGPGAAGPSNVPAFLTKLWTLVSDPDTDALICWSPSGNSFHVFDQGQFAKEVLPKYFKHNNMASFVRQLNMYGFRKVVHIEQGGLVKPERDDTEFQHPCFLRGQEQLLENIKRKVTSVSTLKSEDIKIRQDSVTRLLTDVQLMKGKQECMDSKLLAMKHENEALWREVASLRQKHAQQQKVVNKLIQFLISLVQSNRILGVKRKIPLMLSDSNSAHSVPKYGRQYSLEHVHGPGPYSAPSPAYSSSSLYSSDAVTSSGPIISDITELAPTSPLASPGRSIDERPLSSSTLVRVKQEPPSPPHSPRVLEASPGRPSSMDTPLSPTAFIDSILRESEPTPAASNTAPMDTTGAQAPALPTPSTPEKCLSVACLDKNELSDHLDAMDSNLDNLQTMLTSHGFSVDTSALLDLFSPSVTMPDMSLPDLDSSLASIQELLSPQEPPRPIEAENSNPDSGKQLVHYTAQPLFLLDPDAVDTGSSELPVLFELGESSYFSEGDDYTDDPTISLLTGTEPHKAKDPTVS

[6] = microbe, parasite or virus in culture; type: functional; details: Mycobacterium tuberculosis
[7] = Luminescence Cell-Based Dose Response HTS to Identify Activators of Luciferase Translation or Activity in H4 […] Cells. [Related pubchem assays: 1829 (Project Summary), 1814 (Primary HTS)]; type: functional
[8] = target: T3, Cytochrome P450 1A2 (Homo sapiens, UniProt P05177);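 further: PubChem cytochrome P450 panel assay, CYP1A2 panel member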
T3 sequence (P05177 whole entry): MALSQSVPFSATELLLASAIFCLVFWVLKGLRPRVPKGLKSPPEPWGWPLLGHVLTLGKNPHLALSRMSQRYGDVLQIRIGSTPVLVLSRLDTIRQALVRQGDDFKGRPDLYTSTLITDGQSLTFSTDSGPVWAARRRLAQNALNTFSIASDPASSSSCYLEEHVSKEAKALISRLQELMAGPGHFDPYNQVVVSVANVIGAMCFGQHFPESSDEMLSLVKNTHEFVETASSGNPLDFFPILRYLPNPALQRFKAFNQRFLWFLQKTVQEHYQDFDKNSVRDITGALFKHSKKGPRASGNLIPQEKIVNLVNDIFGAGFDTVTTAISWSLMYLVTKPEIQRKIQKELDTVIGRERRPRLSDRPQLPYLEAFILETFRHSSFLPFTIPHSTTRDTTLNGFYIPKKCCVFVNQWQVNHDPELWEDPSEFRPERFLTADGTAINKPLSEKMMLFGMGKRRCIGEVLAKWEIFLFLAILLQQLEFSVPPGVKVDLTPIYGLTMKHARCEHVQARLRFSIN

[9] = target: Cytochrome P450 2C9 (Homo sapiens, UniProt P11712)
[10] = target: Cytochrome P450 3A4 (Homo sapiens, UniProt P08684);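 further: CYP3A4 tested as one member of a cytochrome P450 panel screen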
[11] = growth suppression of beta-catenin-knockout colon cells, dose response, cell-based, HCT116, human colon tumor (AID 1045); type: functional;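 further: HCT116 colon tumor cells with beta catenin knocked out; cells exposed to compound for 60 hours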
[12] = growth suppression of PTEN-null colon cells, dose response, cell-based, HCT116 PTEN knockout (AID 1047); type: functional;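 further: HCT116 colon tumor cells with PTEN knocked out; cells exposed to compound for 60 hours before readout; potency for loss of cell viability measured by luminescence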
[13] = system: INS1; assay: beta cell apoptosis inhibitors, cytokine rescue, dose response, luminescence, retest (AID 449756); type: functional, cell-based; details: Rattus norvegicus;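 further: cell death triggered by IL-1 beta plus TNF-alpha plus IFN-gamma mixture; protective hits raise ATP signal compared with cytokine alone wells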
[14] = target: T4, Rac GTPase-activating protein 1 (Homo sapiens, UniProt Q9H0H5); assay: MgcRacGAP GTPase-activating activity inhibitors, confirmation, biochemical, ADP Hunter fluorescence, primary and confirmatory (AID 624330); type: functional
T4 sequence (Q9H0H5 whole entry): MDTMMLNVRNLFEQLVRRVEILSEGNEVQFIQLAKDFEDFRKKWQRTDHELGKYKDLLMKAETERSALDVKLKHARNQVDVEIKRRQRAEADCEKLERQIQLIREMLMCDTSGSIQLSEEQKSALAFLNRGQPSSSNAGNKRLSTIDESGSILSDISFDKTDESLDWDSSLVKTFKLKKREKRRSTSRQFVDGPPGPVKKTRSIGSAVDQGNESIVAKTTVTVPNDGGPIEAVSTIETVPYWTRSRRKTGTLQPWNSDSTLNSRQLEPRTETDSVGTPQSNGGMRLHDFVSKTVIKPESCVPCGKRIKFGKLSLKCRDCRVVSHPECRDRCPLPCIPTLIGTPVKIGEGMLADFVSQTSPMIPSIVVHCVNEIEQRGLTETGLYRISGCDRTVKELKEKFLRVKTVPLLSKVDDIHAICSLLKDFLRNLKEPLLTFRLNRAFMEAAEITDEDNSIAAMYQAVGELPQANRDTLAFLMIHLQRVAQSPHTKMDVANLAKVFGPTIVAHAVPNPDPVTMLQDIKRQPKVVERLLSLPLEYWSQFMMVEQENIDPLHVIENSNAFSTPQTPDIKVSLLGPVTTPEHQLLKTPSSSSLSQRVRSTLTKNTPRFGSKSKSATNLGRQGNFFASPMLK

Sequence of FAD-linked sulfhydryl oxidase ALR (P55789 whole entry): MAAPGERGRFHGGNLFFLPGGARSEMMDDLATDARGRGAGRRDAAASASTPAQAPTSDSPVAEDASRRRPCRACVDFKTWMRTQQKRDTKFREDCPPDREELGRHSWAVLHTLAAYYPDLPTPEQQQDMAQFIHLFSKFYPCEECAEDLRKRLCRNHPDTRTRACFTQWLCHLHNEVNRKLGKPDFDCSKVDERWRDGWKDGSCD
Sequence of Cytochrome P450 2C9 (P11712 whole entry): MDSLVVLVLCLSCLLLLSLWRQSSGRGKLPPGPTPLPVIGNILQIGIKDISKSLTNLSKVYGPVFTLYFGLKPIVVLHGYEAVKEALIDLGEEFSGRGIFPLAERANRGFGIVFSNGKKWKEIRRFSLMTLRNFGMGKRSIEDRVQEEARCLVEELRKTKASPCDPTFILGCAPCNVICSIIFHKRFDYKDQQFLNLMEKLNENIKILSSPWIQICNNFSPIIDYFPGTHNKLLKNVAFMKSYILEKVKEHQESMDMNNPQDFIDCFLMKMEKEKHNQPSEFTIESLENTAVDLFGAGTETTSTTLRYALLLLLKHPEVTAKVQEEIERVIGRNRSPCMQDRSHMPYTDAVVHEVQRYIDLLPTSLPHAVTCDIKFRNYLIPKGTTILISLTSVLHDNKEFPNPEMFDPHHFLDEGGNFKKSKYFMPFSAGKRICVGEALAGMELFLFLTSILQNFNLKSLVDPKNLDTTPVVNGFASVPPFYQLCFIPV
Sequence of Cytochrome P450 3A4 (P08684 whole entry): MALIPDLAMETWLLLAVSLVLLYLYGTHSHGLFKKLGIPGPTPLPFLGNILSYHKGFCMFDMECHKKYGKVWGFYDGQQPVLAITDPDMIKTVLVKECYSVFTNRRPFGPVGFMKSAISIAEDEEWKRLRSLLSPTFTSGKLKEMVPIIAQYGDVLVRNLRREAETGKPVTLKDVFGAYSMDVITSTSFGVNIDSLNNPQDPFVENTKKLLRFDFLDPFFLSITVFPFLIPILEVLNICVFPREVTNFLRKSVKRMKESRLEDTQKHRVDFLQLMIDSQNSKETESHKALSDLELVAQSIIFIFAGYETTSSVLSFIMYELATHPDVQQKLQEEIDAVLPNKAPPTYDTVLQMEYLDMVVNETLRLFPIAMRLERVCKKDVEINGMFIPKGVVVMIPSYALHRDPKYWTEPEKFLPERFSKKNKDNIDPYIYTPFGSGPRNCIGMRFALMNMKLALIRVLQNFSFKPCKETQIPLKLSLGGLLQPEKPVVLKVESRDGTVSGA

Cc1cccc(NC(=O)Cc2coc3ccc4ccccc4c23)n1
CC50 [1]: 33.8 µM (active)

COc1ccc(CN2CCN(c3ccccc3F)CC2)cc1O
IC50 [2]: > 100 µM (inactive)

COc1ccc(C(=O)OCn2nnc3ccccc3c2=O)cc1[N+](=O)[O-]
IC50 [3]: 7.55 µM (active)

O=C(NCc1cccs1)C(=O)NCC(c1ccco1)N1CCN(c2ccccc2)CC1 (stereo not drawn)
AC50 [4]: 0.01 µM (active)

CC(=O)c1c(C)[nH]c(C(=O)Nc2cccc(C)n2)c1C
EC50 [5]: > 260 µM (inactive)

O=C1C2CCCCC2C(=O)N1Cc1ccccc1 (stereo not drawn)
EC50 [5]: > 260 µM (inactive)

COc1cc(NC(=O)c2ccc(C(C)(C)C)cc2)c(OC)cc1NC(=O)CN1CCCCC1
CC50 [6]: > 40 µM (active)

O=C(CCNc1ccc(Cl)cc1)c1cccs1
IC50 [3]: 25.5 µM (active)

CC(C)CC(NS(=O)(=O)c1ccc2c(c1)oc(=O)n2C)C(=O)NC1CCCc2ccccc21 (stereo not drawn)
EC50 [5]: > 260 µM (inactive)

C=Cc1cccc(NC(=O)COc2ccccc2)c1
IC50 [3]: > 50 µM (active)

COC(=O)C1CCN(C(=O)Cc2c(OC)ccc3cc(Br)ccc23)CC1
EC50 [5]: 68.2 µM (active)

O=C(C1=C[C@@H](C2CC2)C[C@@H](OCc2ccc(CO)cc2)O1)N1CCN(Cc2ccccc2)CC1
EC50 [5]: > 260 µM (inactive)

Nc1n[nH]c(SCC(=O)Nc2ccc([N+](=O)[O-])cc2Br)n1
EC50 [5]: > 260 µM (inactive)

Cc1ccc(NC(=S)N(CCCN2CCCC2)Cc2cccn2Cc2ccc(Cl)cc2)cc1C
CC50 [6]: 17.7 µM (active)

N#Cc1c(-c2ccc(Cl)cc2)ccn2nc(C3CCCCC3)nc12
EC50 [7]: 6.98 µM (active)

COc1ccc(C2(C)NC(=O)N(CC3CCCCC3)C2=O)cc1 (stereo not drawn)
EC50 [5]: > 260 µM (inactive)

CSc1nsc(/C=C/Nc2ccc(O)cc2C)c1C#N
CC50 [6]: > 40 µM (active)

COC(=O)c1ccc(-c2ccco2)n1Cc1nc(-c2ccc(OC)c(OC)c2)oc1C
CC50 [1]: 34 µM (active)

COc1ccc(-c2ccnc3nc(N4CCN(c5ccccc5)CC4)nn23)cc1
CC50 [6]: > 40 µM (active)

OCCOCCn1c(CCNc2nc(-c3ccc(Cl)cc3)cs2)nc2cc(Cl)c(Cl)cc21
CC50 [1]: 14.3 µM (active)

Nc1n[nH]c(N2CCN(c3ccc(Cl)cc3)CC2)n1
AC50 [4]: 0.325 µM (active)

CCOC(=O)c1cnn(-c2ccccc2)c1-n1cccc1C(=O)C(=O)Nc1ccccc1C(F)(F)F
AC50 [8]: 14.1 µM (inconclusive)
AC50 [9]: 5.62 µM (inconclusive)
AC50 [10]: 4.47 µM (inconclusive)
CC50 [1]: 24.1 µM (active)

CCOC(=O)c1cc(-c2cccc([N+](=O)[O-])c2)on1
IC50 [3]: 10.3 µM (active)

CCN(CC)Cc1c(-c2ccccc2)nc2ccc(C)cc2c1O
AC50 [4]: 1.77 µM (active)

CCCCn1c(SCc2ncc(-c3ccccc3)o2)nc2cc(S(N)(=O)=O)ccc21
EC50 [11]: 27.4 µM (active)
CC50 [6]: > 40 µM (active)
EC50 [12]: 26 µM (active)

Cc1ccccc1-c1cc(=O)c2c(O)cccc2o1
EC50 [5]: > 260 µM (inactive)

COc1ccc(C(=O)COC(=O)COc2ccc(C)c(C)c2)cc1
IC50 [3]: > 50 µM (active)

COc1ccccc1N1CCN(C(=O)CCNS(=O)(=O)c2cc(Br)cnc2N)CC1
AC50 [4]: 11.8 µM (active)

COc1cc(C2NC(=O)NC(C)=C2C(=O)OC2CCCCC2)cc(Cl)c1O (stereo not drawn)
EC50 [5]: > 260 µM (inactive)

CCOc1ccc2nc(NC(=O)c3cccc(-c4cc5ccccc5oc4=O)c3)sc2c1
AC50 [13]: 3.24 µM (active)

COc1ccc(/C=C/C(=O)OC2CCCN(C)C2)cc1 (stereo not drawn)
EC50 [5]: > 260 µM (inactive)

O=C1CCC(/C=C/c2ccccc2)=NN1Cc1ccc(Cl)c(Cl)c1
CC50 [1]: 24.4 µM (active)

CCOC(=O)CC1NCCc2c1[nH]c1ccc(OC)cc21 (stereo not drawn)
EC50 [5]: > 260 µM (inactive)

CC(C)Cc1nnc(NC(=O)CCS(=O)(=O)c2ccc(Cl)cc2)s1
IC50 [3]: 36 µM (active)

COc1ccccc1Nc1nc(C2(C)CCC(=O)O2)cs1 (stereo not drawn)
AC50 [4]: 4.38 µM (active)

COc1ccccc1-c1ccc(SCC(=O)Nc2cc(C)on2)nn1
EC50 [5]: > 260 µM (inactive)

Cc1cc(C(=O)C(C)OC(=O)c2ccc(NC(=O)CC#N)cc2)c(C)n1-c1ccc(OC(F)F)cc1 (stereo not drawn)
AC50 [13]: 4.26 µM (active)

COc1cccc(CNC(=O)CCNC(=O)N2CCn3c2nc2ccccc23)c1
AC50 [4]: 1.09 µM (active)

C/C(=N\NC(=O)c1ccoc1C)c1ccccc1O
AC50 [13]: 3.12 µM (active)

COc1cccc(/C=N/N2C(=O)NC3(CCCCC3)C2=O)c1O
AC50 [4]: 9.34 µM (active)

CCOc1cc(/C=N/NC(N)=O)cc(Br)c1OCc1ccccc1
CC50 [1]: 19.4 µM (active)

Oc1ccccc1/N=C/c1ccc[nH]1
CC50 [6]: > 40 µM (active)

COc1cc(/C(C)=N/N2CCN(Cc3ccc(C)cc3)CC2)ccc1O
IC50 [14]: 271 µM (active)
AC50 [4]: 7.66 µM (active)

C/N=c1\scc(-c2ccccc2Br)n1/N=C/c1ccc[nH]1
CC50 [6]: > 40 µM (active)

Cn1/c(=N/C(=O)C2CC2)sc2cc(F)cc(F)c21
IC50 [2]: > 100 µM (inactive)

CO/N=C/c1cc([N+](=O)[O-])ccc1Sc1ccc(C)cc1
EC50 [5]: > 260 µM (inactive)

NNCCc1ccccc1 [PHENELZINE SULFATE]
AC50 [4]: 7.5 µM (active)
